From patent US20100129470A1, “METHOD OF TREATING BRAIN CANCER” (Myriad Pharmaceuticals, Incorporated, priority 2007, published 2010)
Entries after “also recorded” stand apart in the source; their conditions may differ. Structures can show the parent of a compound that is named as a salt.

Tested on: Subjects with Refractory Solid Tumors
Test: Phase I clinical trial: open-label, dose-escalating, multiple-dose study of weekly intravenous administration
Format: in vivo
Details: human subjects
Description: An open-label, dose-escalating, multiple-dose study to define the safety, tolerability and phamacokinetics of weekly intravenous administration of (4-Methoxy-phenyl)-methyl-(2-methyl-quinazolin-4-yl)-amine hydrochloride was performed. A dosing schedule (each 4 week cycle) was performed for (4-Methoxy-phenyl)-methyl-(2-methyl-quinazolin-4-yl)-amine hydrochloride weekly for 3 weeks with no infusion on the fourth week of each cycle. Subjects with refractory solid tumors were enrolled in cohorts of 3. During Cycle 1, subjects were hospitalized during each infusion of (4-Methoxy-phenyl)-methyl-(2-methyl-quinazolin-4-yl)-amine hydrochloride and remained for observation and safety evaluation for approximately 24 hours following the end of the infusion. All subject had continuous telemetry for 2 hours prior to infusion, for 1-2 hour infusion and for 3 hours after the end of the infusion. Any clinically significant electrocardiographic (ECG) wave form abnormality was recorded and prolongation of the monitoring period extended at the discretion of the principal investigator.
Electrocardiograms were obtrained prior to starting the infusion and within 30 minutes of the end of infusion for each infusino of the first cycle. Electrocardiograms on Day 1 were obtained in triplicate 5 minutes apart.
Neurocognitive assessments were made by administration of the Mini-Mental State Examination (MMSE), the Hopkins Verbal Learning and timed Grooved Pegboard tests before administration of the intravenous infusion and approximately 24 hours of the infusion at each weekly administration of the first cycle.
On days 1, 8, and 15 of each cycle, vital signs were obtained prior to the first dose, at 15, 30, and 60 minutes after the initiation of the infusion, and at 0.5, 1, 1.5, 2, and 4 hours after the end of the intravenous infusion. Vital signs at all time points beyond the start of the intravenous infusion included heart rate, blood pressure and respirations. Temperature ws measured at the end of the infusion and 4 hours later.
Individual subjects were allowed to continue on repeated weekly×3 administrations every 28 days with no dose increase provided there was no unacceptable toxicity or disease progression.
Tumor response was evaluated by response evaluation criteria in solid tumors (RECIST) criteria. To prevent sever hypersensitivity reactions due to Cremophor® EL, subjects were premedicated with oral dexamethasone (20 mg) administered approximately 12 and 6 hours before the intrvenous infusion with (4-Methoxy-phenyl)-methyl-(2-methyl-quinazolin-4-yl)-amine hydrochloride, diphenhydramine (50 mg) or its equivalent administered intravenously 30-60 minutes before (4-Methoxy-phenyl)-methyl-(2-methyl-quinazolin-4-yl)-amine hydrochloride, and cimetidine (300 mg) or ranitidine (50 mg) administered intravenously 30-60 minutes before (4-Methoxy-phenyl)-methyl-(2-methyl-quinazolin-4-yl)-amine hydrochloride.

[1] = weekly i.v. infusion, 0.3-3.3 mg/m^2

`COc1ccc(N(C)c2nc(C)nc3ccccc23)cc1` [(4-Methoxy-phenyl)-methyl-(2-methyl-quinazolin-4-yl)-amine hydrochloride] was tested, and the “effects on cardiac conduction (PR, QRS or QTc)” value (ECG, weekly i.v. infusion, 0.3-3.3 mg/m^2) was “no significant effects”, the safety and tolerability (weekly i.v. administration, various dosages, hydrochloride) was “safe and well tolerated; also recorded: safe and tolerable” and the peripheral cytotoxicity (weekly i.v. infusion for 3 weeks of each 4 week cycle, 0.3-3.3 mg/m^2) was “no evidence of cytotoxity peripherally”. The bradycardia [1] was “occasional episodes of bradycardia”, the dose limiting toxicity [1] was “vascular in nature, manifested by an acute coronary syndrome” and the intratumor bleeding [1] was “incidences of intratumor bleeding”. For the same compound, the systolic blood pressure [1] was “dose-related increase”.
